Assay results published in ChEMBL document CHEMBL1146484, “Current developments in the discovery and design of new drug candidates from plant natural product leads” (J Nat Prod, 2004).
≈ marks a conversion by molar mass, not a printed value. Calls of active or inactive are those of the source. The rule behind the calls is not given here.

Legend:
[1] = tested on: Human immunodeficiency virus; test: Antiviral activity against HIV; type: functional, organism-based; settings: Human immunodeficiency virus 1
[2] = Cytotoxicity against human NCI60 cells; type: functional; settings: for TGI: read-out: pGI100 (converted)
[3] = target: DNA topoisomerase 2-alpha (Homo sapiens) (UniProt P11388); test: Inhibition of topoisomerase 2
DNA topoisomerase 2-alpha (Homo sapiens), sequence (P11388 whole entry): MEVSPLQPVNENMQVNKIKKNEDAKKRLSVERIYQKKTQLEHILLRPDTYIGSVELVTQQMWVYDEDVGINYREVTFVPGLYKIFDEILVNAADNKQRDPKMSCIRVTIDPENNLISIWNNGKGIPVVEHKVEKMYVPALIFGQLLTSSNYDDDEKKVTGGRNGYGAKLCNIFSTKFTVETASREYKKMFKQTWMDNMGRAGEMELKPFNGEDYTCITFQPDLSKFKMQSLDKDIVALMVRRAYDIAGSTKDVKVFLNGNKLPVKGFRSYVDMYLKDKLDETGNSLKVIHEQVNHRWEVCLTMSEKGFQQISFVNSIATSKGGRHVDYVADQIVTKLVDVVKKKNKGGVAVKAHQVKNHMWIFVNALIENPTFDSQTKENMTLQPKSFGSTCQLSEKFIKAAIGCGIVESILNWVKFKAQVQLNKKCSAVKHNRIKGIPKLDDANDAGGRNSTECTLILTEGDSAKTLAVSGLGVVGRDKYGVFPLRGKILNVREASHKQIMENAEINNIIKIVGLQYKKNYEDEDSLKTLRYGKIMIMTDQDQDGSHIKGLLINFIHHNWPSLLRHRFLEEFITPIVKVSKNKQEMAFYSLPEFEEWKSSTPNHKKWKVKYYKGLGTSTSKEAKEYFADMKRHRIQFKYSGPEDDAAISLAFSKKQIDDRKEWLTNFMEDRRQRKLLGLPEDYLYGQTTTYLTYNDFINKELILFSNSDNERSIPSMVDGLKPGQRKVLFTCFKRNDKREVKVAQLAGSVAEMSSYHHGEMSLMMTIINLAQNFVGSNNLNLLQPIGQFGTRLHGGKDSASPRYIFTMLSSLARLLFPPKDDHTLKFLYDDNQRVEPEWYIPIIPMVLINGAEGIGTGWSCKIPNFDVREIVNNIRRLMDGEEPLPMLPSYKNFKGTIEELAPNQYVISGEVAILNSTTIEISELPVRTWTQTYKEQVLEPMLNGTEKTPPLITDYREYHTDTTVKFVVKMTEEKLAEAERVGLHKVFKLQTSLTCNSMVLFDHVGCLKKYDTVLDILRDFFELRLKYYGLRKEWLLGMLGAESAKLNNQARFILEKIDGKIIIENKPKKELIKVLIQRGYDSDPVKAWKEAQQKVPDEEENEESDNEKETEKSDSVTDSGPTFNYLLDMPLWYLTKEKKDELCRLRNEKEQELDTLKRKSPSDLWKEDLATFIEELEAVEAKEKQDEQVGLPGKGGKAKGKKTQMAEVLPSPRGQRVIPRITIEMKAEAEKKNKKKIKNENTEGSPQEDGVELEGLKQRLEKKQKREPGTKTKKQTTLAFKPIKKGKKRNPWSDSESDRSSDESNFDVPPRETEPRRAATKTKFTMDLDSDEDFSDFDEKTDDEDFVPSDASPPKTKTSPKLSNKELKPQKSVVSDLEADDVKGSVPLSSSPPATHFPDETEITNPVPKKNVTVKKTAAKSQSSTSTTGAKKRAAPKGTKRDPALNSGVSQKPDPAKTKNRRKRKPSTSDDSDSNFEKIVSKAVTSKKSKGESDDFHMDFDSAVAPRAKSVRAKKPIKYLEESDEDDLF

KB = test: Cytotoxicity against human KB cells; type: functional; settings: for IC50: read-out: ID50 (the source's name); for CC50: read-out: LD50 (the source's name); for EC50: read-out: ED50 (the source's name)
[4] = Inhibition of tubulin polymerization
[5] = Cytotoxicity against human melanoma cells; type: functional; settings: Melanoma cell
[6] = Cytotoxicity against human renal cancer cells; type: functional; settings: Cancer cell lines
RPMI-7951 = test: Cytotoxicity against human RPMI7951 cells; type: functional; settings: read-out: ED50 (the source's name)
HCT-8 = test: Cytotoxicity against human HCT8 cells; type: functional; settings: read-out: ED50 (the source's name)
CAKI-1 = test: Cytotoxicity against human Caki1 cells; type: functional; settings: read-out: ED50 (the source's name)
A549 = test: Cytotoxicity against human A549 cells; type: functional; settings: read-out: ED50 (the source's name)
SK-MEL-2 = test: Cytotoxicity against human SK-MEL-2 cells; type: functional; settings: read-out: ED50 (the source's name)
MCF7 = test: Cytotoxicity against human MCF7 cells; type: functional; settings: for EC50: read-out: ED50 (the source's name)
[7] = target: DNA topoisomerase 2-alpha (Homo sapiens) (UniProt P11388); test: Inhibition of human DNA topoisomerase 2 assessed as DNA cleavage at 20 uM
[8] = target: DNA topoisomerase 2-alpha (Homo sapiens) (UniProt P11388); test: Inhibition of human DNA topoisomerase 2
Mus musculus = test: Toxicity in ip dosed nude mouse; type: organism-based; settings: in vivo
MOLT-4 = test: Cytotoxicity against human MOLT4 cells; type: functional

Structure (SMILES): COc1cc2c(c(OC)c1OC)-c1c(cc3c(c1OC)OCO3)C[C@@H](C)[C@@H](C)C2 [KADSURANIN]
- EC50 [1]: 0.8 µg/mL

Structure (SMILES): Cc1ccc2c(=O)cc(-c3cccc(F)c3)[nH]c2n1
- GI50 [2]: 269 nM
- TGI [2]: 72.4 µM

Structure (SMILES): COc1cc([C@@H]2c3cc4c(cc3[C@@H](O[C@@H]3O[C@@H]5CO[C@@H](C)O[C@H]5[C@H](O)[C@H]3O)[C@H]3COC(=O)[C@H]23)OCO4)cc(OC)c1O [ETOPOSIDE]
- IC100 [3]: 100 µM
- IC50 (KB): 200 nM
- CC50 (KB): 3000 nM

Structure (SMILES): COc1cc2c(c(OC)c1OC)-c1ccc(OC)c(=O)cc1[C@@H](NC(C)=O)CC2 [COLCHICINE]
- IC50 [4]: 650 nM

Structure (SMILES): COc1cc2c(c(OC)c1OC)-c1ccc(SC)c(=O)cc1[C@@H](OC(C)=O)CC2
- IC50 [4]: 560 nM

Structure (SMILES): COc1c2c(cc3c1-c1c(cc4c(c1OC)OCO4)[C@H](OC(=O)c1ccccc1)[C@@](C)(O)[C@@H](C)C3)OCO2 [SCHISANTHERIN D]
- EC50 [1]: 0.5 µg/mL

Structure (SMILES): CC1(C)CC[C@]2(C(=O)O)CC[C@]3(C)C(=CC[C@@H]4[C@@]5(C)CC[C@H](O)C(C)(C)[C@@H]5CC[C@]43C)[C@@H]2C1 [OLEANOLIC_ACID]
- EC50 [1]: 1.7 µg/mL

Structure (SMILES): O=c1cc(-c2ccccc2F)[nH]c2ccc(N3CCCC3)cc12
- GI50 [5]: ≤ 10 nM
- GI50 [6]: 22.4 nM

Structure (SMILES): COc1cccc(-c2cc(=O)c3ccc(C)nc3[nH]2)c1
- GI50 [2]: 269 nM
- TGI [2]: 72.4 µM

Structure (SMILES): COc1cc2c(c(OC)c1OC)-c1ccc(SC)c(=O)cc1C(=O)CC2 [THIOCOLCHICONE]
- IC50 [4]: 560 nM

Structure (SMILES): COc1cc2c(c(OC)c1OC)-c1ccc(SC)c(=O)cc1[C@@H](O)CC2
- IC50 [4]: 560 nM

Structure (SMILES): CC(=O)O[C@@H]1[C@H](OC(=O)CC(C)C)c2c(ccc3ccc(=O)oc23)OC1(C)C [SUKSDORFIN]
- EC50 [1]: 1300 nM

Structure (SMILES): COc1c2c(cc3c1-c1c(cc4c(c1OC)OCO4)C[C@H](C)[C@H](C)C3)OCO2 [SCHISANDRIN C]
- EC50 [1]: 1.2 µg/mL

Structure (SMILES): COC(=O)[C@@]12OC[C@]34[C@H](OC(=O)C[C@@H]13)[C@H](OC(=O)C=C(C)C)[C@H]1C(C)=C(O[C@@H]3O[C@H](CO)[C@@H](O)[C@H](O)[C@H]3O)C(=O)C[C@]1(C)[C@H]4[C@@H](O)[C@@H]2O [BRUCEOSIDE C]
- EC50 (KB): < 100 ng/mL
- EC50 (RPMI-7951): < 0.1 µg/mL

Structure (SMILES): CC1(C)CC[C@]2(C(=O)O)CC[C@]3(C)C(=CC[C@@H]4[C@@]5(C)CC[C@H](OC(=O)CC(C)(C)C(=O)O)C(C)(C)[C@@H]5CC[C@]43C)[C@H]2C1
- EC50 [1]: 0.0039 µg/mL

Structure (SMILES): COc1cccc([C@@H]2CC(=O)c3cc(N4CCCC4)ccc3N2)c1
- EC50 (HCT-8): 8 ng/mL (≈ 0.0248 µM)
- EC50 (KB): 8 ng/mL (≈ 0.0248 µM)
- EC50 (CAKI-1): 0.008 µg/mL (≈ 0.0248 µM)
- EC50 (A549): 8 ng/mL (≈ 0.0248 µM)
- EC50 (SK-MEL-2): 8 ng/mL (≈ 0.0248 µM)
- EC50 (MCF7): 0.008 µg/mL (≈ 0.0248 µM)

Structure (SMILES): Cc1cc(=O)oc2c3c(ccc12)OC(C)(C)[C@H](OC(=O)C12CCC(C)(C(=O)O1)C2(C)C)[C@@H]3OC(=O)C12CCC(C)(C(=O)O1)C2(C)C (stereo partly drawn)
- EC50 [1]: 0.00016 nM

Structure (SMILES): COc1cc([C@@H]2c3cc4c(cc3[C@@H](Nc3ccccc3)[C@H]3COC(=O)[C@H]23)OCO4)cc(OC)c1O
- inhibition [7]: 125%
- ID50 [8]: 50 µM

Structure (SMILES): COc1cc2c(c(OC)c1OC)-c1ccc(SC)c(=O)cc1[C@@H](OC(=O)c1ccncc1)CC2
- IC50 [4]: 560 nM

Structure (SMILES): CC1(C)C=C2[C@H]3CC[C@@H]4[C@@]5(C)CCC(=O)C(C)(C)[C@@H]5CC[C@@]4(C)[C@]3(C)CC[C@@]2(C(=O)O)CC1 [MORONIC ACID]
- EC50 [1]: < 0.1 µg/mL

Structure (SMILES): Cc1cnc2[nH]c(-c3cccc(Cl)c3)cc(=O)c2c1
- GI50 [2]: 269 nM
- TGI [2]: 72.4 µM

Structure (SMILES): Cc1cnc2[nH]c(-c3cccc(F)c3)cc(=O)c2c1
- GI50 [2]: 269 nM
- TGI [2]: 72.4 µM

Structure (SMILES): CC(=O)N[C@H]1CCc2cc(O)c(O)c(O)c2-c2ccc(NC(=O)c3ccc(Cl)cc3)c(=O)cc21
- Activity [3]: Active
- EC50 (CAKI-1): 0.98 µg/mL (≈ 2.04 µM)
- EC50 (MCF7): 0.48 µg/mL (≈ 0.998 µM)

Structure (SMILES): CC[C@@]1(O)C(=O)OCc2c1cc1n(c2=O)Cc2c-1nc1ccccc1c2/C=N/c1ccccc1N[C@@H]1c2cc3c(cc2[C@@H](c2cc(OC)c(O)c(OC)c2)[C@H]2C(=O)OC[C@@H]21)OCO3
- LD50 (Mus musculus): > 50 mg/kg/day

Structure (SMILES): CC1(C)Oc2ccc3ccc(=O)oc3c2[C@@H](OC(=O)C23CCC(C)(C(=O)O2)C3(C)C)[C@H]1OC(=O)C12CCC(C)(C(=O)O1)C2(C)C (stereo partly drawn)
- EC50 [1]: 0.4 nM

Structure (SMILES): COc1cc([C@@H]2c3cc4c(cc3[C@@H](Nc3ccc(NC(=O)c5cc([N+](=O)[O-])cn5C)cc3)[C@H]3COC(=O)[C@H]23)OCO4)cc(OC)c1O
- IC100 [3]: 12.5 µM
- GI50 (MOLT-4): < 10 nM
- IC50 (KB): 40 nM
- CC50 (KB): 150 nM
- GI50 (MCF7): < 10 nM

Structure (SMILES): C=C(C)[C@@H]1CC[C@]2(C(=O)O)CC[C@]3(C)[C@H](CC[C@@H]4[C@@]5(C)CC[C@H](OC(=O)CC(C)(C)C(=O)O)C(C)(C)[C@@H]5CC[C@]43C)[C@@H]12 [BEVIRIMAT]
- EC50 [1]: < 0.35 nM

Structure (SMILES): COc1cc2c(c(OC)c1OC)-c1c(cc3c(c1OC)OCO3)[C@H](OC(=O)c1ccccc1)[C@@](C)(O)[C@@H](C)C2 [GOMISIN G]
- EC50 [1]: 0.006 µg/mL

Structure (SMILES): COc1cc([C@@H]2c3cc4c(cc3[C@@H](Nc3ccc(F)cc3)[C@H]3COC(=O)[C@H]23)OCO4)cc(OC)c1O
- inhibition [7]: 139%
- ID50 [8]: 50 µM

Structure (SMILES): CNc1ccc2c(cc1=O)[C@@H](NC(C)=O)CCc1cc(O)c(O)c(O)c1-2
- Activity [3]: Active
- EC50 (CAKI-1): 0.72 µg/mL (≈ 2.02 µM)
- EC50 (MCF7): 0.36 µg/mL (≈ 1.01 µM)
